Data as given in patent US20060182792A1, “Liposome-forming compositions” (priority 2002, published 2006).

Test: Absolute oral bioavailability of liposomally administered octreotide per os in rats
Method: Wistar rats (with approximately 250 g body weight) fast for 12 hours and receive 0.5 ml of the aqueous mixture of the composition according to the invention by pharyngeal probe so that the administered amount of octreotide is 100 μg per animal. As a comparative test 100 μg of free octreotide was dissolved in 0.5 ml of PBS and administered via pharyngeal probe. Blood samples were taken after 30, 60, 120 and 240 min. retroorbitally. An i.v. injection of 2 μg of octreotide per animal provided a control in order to determine the absolute bioavailability. […] Six animals were tested for each formulation.

## C[C@@H](O)[C@@H]1NC(=O)[C@H](CCCCN)NC(=O)[C@@H](Cc2c[nH]c3ccccc23)NC(=O)[C@H](Cc2ccccc2)NC(=O)[C@@H](NC(=O)[C@H](N)Cc2ccccc2)CSSC[C@@H](C(=O)N[C@H](CO)[C@@H](C)O)NC1=O [Free, octreotide]
Wistar, rat, in vivo, 100 μg per animal
  bioavailability: 0.5%
Free octreotide, oral, 0.1 mg/animal, lipid/peptide 0
  Gain factor of the absolute bioavailability vs free octreotide: 1
